The subject of assay [1] is A375 cells. As to the kind of experiment: Spheroid formation assay, A375. Type of assay: cell-based. The method, then:
(§1) Cancer cells were maintained under attached conditions in growth media containing DMEM (Invitrogen, Frederick, Md.) supplemented with 4.5 mg/ml D-glucose, […] L-glutamine, 100 mg/ml sodium pyruvate, and 5% fetal calf serum. For spheroid culture, monolayer cultures were dissociated with 0.25% trypsin and the cells were collected by centrifugation, and resuspended in spheroid media, consisting of DMEM/F12 (1:1) (DMT-10-090-CV, Mediatech INC, Manassa, Va.) containing 2% B27 serum-free supplement (17504-044, Invitrogen, Frederick, Md.) 20 ng/ml EGF (E4269, Sigma, St. Louis), 0.4% bovine serum albumin (B4287, Sigma) and […] insulin (19278 Sigma, St. Louis, Mo.) and plated at 40,000 cells per 9.6 cm^2 well in six well ultra-low attachment Costar cluster dishes (4371, Corning, Tewksbury, Mass.). Parallel cultures were plated in spheroid media on conventional plastic dishes for growth as monolayer cultures.

Assay [2] deals with A375-PLX-R cells. As to the kind of experiment: Spheroid formation assay, A375-PLX-R. Type of assay: cell-based. The procedure:
as §1
(§2) A375, SK-MEL-5 and SK-MEL-28 cell lines were maintained in DMEM growth medium containing 10% FCS, 2 mM L-glutamine and 1 mM sodium pyruvate. The WM3248 cells were maintained in MCDB153:L15 (4:1) growth medium containing 2% FCS, […] insulin and 1.68 mM CaCl2. To create PLX4032-resistant cells, A375, SK-MEL-5, SK-MEL-28 and WM3248 cells were treated with […] in monolayer culture in growth medium for several weeks. The surviving cells were then expanded and cultured in increasing doses of PLX4032 up to […]. The resulting PLX4032-resistant cells, designated PLX4032-resistant (e.g., A375-PLX-R) were routinely maintained in the presence of […] PLX4032.

In assay [3] the test system is A375 cells. As to the kind of experiment: Matrigel invasion assay, A375. Type of assay: cell-based. The procedure:
(§3) Matrigel (BD Biolabs) was diluted in 0.01 M Tris-HCL/0.7% NaCl, filter-sterilized and 0.1 ml was used to cover the membrane in BD BioCoat cell inserts (#353097, […], 24 well format, membrane growth area=0.33 cm^2). Cells 25,000/well were plated in […] of growth media containing 1% FCS atop the Matrigel. Growth media containing 10% FCS was added to the lower well and cells were incubated overnight at 37 C. The following day, excess cells from the top side of the membrane were removed with a cotton swab, and the membrane was rinsed in phosphate-buffered saline, fixed with 4% paraformaldehyde for 10 minutes, washed and stained in […] DAPI for 10 minutes to visualize the cells. The underside of the membrane was photographed with an inverted fluorescent microscope to count the number of cells that had migrated through the Matrigel layer (38).

In assay [4] the test system is A375-PLX-R cells. As to the kind of experiment: Matrigel invasion assay, A375-PLX-R. Further details: suppression of matrigel invasion at higher verteporfin concentrations: dose or concentration left out as unconfirmed. Type of assay: cell-based. The method, then:
as §3, §2

Assay [5] concerns PLX4032-resistant SK-MEL-5, SK-MEL-28 and WM3248 cells. As to the kind of experiment: Spheroid formation, other PLX4032-resistant melanoma lines. The assay is classed as cell-based. The conditions noted are these: PLX4032-resistant SK-MEL-5, SK-MEL-28, WM3248; FIGS. 5B, 5E. The procedure: as §1
(§4) A375, SK-MEL-5 and SK-MEL-28 cell lines were maintained in DMEM growth medium containing 10% FCS, 2 mM L-glutamine and 1 mM sodium pyruvate. […]
(§5) The impact of verteporfin on additional PLX4032 resistant melanoma cancer cell lines was examined. […] To determine whether YAP1 and TAZ can antagonize PLX4032 action, constitutively active YAP1 and TAZ were expressed in wild-type SK-MEL-28 cells and the impact on cell proliferation was monitored.

Assay [6] has the same test system. As to the kind of experiment: Matrigel invasion, other PLX4032-resistant melanoma lines. The following applies: PLX4032-resistant SK-MEL-5, SK-MEL-28, WM3248; FIGS. 5C, 5F. Type of assay: cell-based. The procedure:
as §3, §4, §5

Assay [7] relates to A375 spheroid cell-derived tumors. As to the kind of experiment: Tumor xenograft assay, A375 spheroid cell-derived tumors. The assay is classed as in vivo, NSG mice. The method, then: (§6) Cells were grown for ten days as spheroids and a single cell suspension, prepared by trypsin digestion, was resuspended in phosphate buffered saline containing 30% Matrigel and 100 μl containing 0.1 million cells were injected subcutaneously at the two front flanks of NOD/scid/IL2 receptor gamma-knockout mice (NSG mice) using a 26.5 gauge needle. PLX4032 was dissolved in phosphate-buffered saline containing 10% DMSO and delivered at 20 mg/kg by oral gavage in […] three times per week (M/W/F). Verteporfin was dissolved in phosphate-buffered saline containing 10% DMSO and 0-100 mg/kg was delivered by intraperitoneal injection of […] three times per week (M/W/F). Five mice were used per group (two tumors per mouse) and treatment was initiated two days after tumor cell injection. Tumor growth was monitored by measuring tumor diameter and calculating tumor volume using the formula, volume=4/3π×(diameter/2)^3. Mice were euthanized by injection of 250 μl of a 2.5% stock of Avertin per mouse followed by cervical dislocation of the neck. Tumor samples were harvested to prepare extract for immunoblot and sections for immunostaining. These experiments were reviewed and approved by the University of Maryland-Baltimore Institutional Animal Care and Use Committee. The plotted values are mean±SEM and significance were determined using the students t-test.

In assay [8] the test system is A375-PLX-R spheroid cell-derived tumors. As to the kind of experiment: Tumor xenograft assay, A375-PLX-R spheroid cell-derived tumors. The assay is classed as in vivo, NSG mice. The procedure:
as §6

“Also recorded” adds a separate entry of the source.

The results in this text go back to patent US11246856B2, “Methods of treating resistant cancers” (University of Maryland, Baltimore, priority 2017, dated 2022).

In the case of `CCCS(=O)(=O)Nc1ccc(F)c(C(=O)c2c[nH]c3ncc(-c4ccc(Cl)cc4)cc23)c1F` [PLX4032], the spheroid formation entry in assay [1] (A375 cells, FIGS. 2A-2B) is recorded as “suppressed”; in assay [2] (A375-PLX-R cells, FIGS. 2A-2B), “not”; in assay [5] it was “did not reduce”. Also, the A375-PLX-R spheroid formation entry in assay [2] (0-1 μM PLX4032, no verteporfin, FIG. 5A legend) is on record as “does not suppress”; in assay [2] (0-1 mM PLX4032, no verteporfin, FIG. 5A), “did not suppress”. Further, the matrigel invasion result is recorded as “not suppressed; also recorded: did not impact” in assay [3] (A375, PLX4032 treatment); “not suppressed; also recorded: did not impact” in assay [4] (A375-PLX-R, PLX4032 treatment); “did not reduce” in assay [6]. Moreover, the tumor growth entry in assay [7] (PLX4032 20 mg/kg oral gavage three times per week, FIG. 6B) was “suppressed”. Further, the “p21Cip1 level in tumors” value in assay [7] (PLX4032-treated A375 tumors, FIG. 6C) is reported as “slightly elevated”. Moreover, in assay [8] (PLX4032 20 mg/kg in the presence of verteporfin), the “ERK1/2-P level in tumors” value was “reduced”. Also, the “tumor growth / tumor formation” value in assay [8] (PLX4032 20 mg/kg oral gavage three times per week, absence of verteporfin, 20 mg/kg) is reported as “did not suppress”.

For the compound verteporfin, the IC50 in assay [1] (A375, FIG. 4A legend, read-out: verteporfin concentration suppressing spheroid formation by 50%) lay in the range of 0.1 to 0.25 µM; in assay [2] (A375-PLX-R, FIG. 4B legend, read-out: verteporfin concentration suppressing spheroid formation by 50%), 0.1 to 0.25 µM; in assay [3] (A375, FIG. 4D legend, read-out: verteporfin concentration giving 50% suppression of matrigel invasion), 0.5 to 1 µM; in assay [4] (A375-PLX-R, FIG. 4E legend, read-out: verteporfin concentration giving 50% suppression of matrigel invasion) it was 0.5 to 1 µM. Further, the “spheroid formation at higher verteporfin concentrations” value in assay [1] (A375, above 0.1-0.25 mM) is reported as “nearly completely inhibited”; in assay [2] (A375-PLX-R, above 0.1-0.25 mM), “nearly completely inhibited”. Besides, the “PLX4032 suppression of spheroid number on verteporfin co-treatment” value in assay [2] (co-treatment 0.1 μM verteporfin with 0-1 μM PLX4032, FIG. 5A legend) was “restores”; in assay [2] (co-treatment 0.1 mM verteporfin with 0-1 mM PLX4032, FIG. 5A), “restored”. Also, the “suppression of matrigel invasion at higher verteporfin concentrations” value is listed as “nearly complete” in assay [3] (A375 (FIG. 4D), above 0.5-1 mM) and “nearly complete” in assay [4] (A375-PLX-R (FIG. 4E)). Moreover, the spheroid formation result in assay [5] is on record as “reduced”. Also, the matrigel invasion entry in assay [6] is given as “reduced”. The “YAP1, YAP1-P, TAZ and TEAD levels in tumors” value in assay [8] (10 mg/kg verteporfin/20 mg/kg PLX4032-treated tumors, FIG. 7C) is listed as “reduction”. In addition, the tumor size entry in assay [8] (verteporfin 0-100 mg/kg intraperitoneal three times per week, FIGS. 7A-7B) was “dose-dependent reduction”. Further, the tumor formation result in assay [8] (verteporfin 10 mg/kg alone) was “does not suppress”. Moreover, the “PLX4032-dependent suppression of tumor formation” value in assay [8] (verteporfin 10 mg/kg with PLX4032 20 mg/kg) was “restores”.
